Data: PubChem BioAssay (NCI)
“And” between values parts separate entries of the source, which are not always exact repeats. Identical values can stand only once.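 48-hour exposure; five concentrations; linearly interpolated endpoints. GI50 is the concentration that inhibits growth by half. At the TGI there is no net growth.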

Key:
Assay in all cases: NCI tumour cell line growth inhibition, 48 h
A498 renal = tested on: A498 renal
ACHN renal = tested on: ACHN renal
HCT-116 colon = tested on: HCT-116 colon
HOP-92 NSCLC = tested on: HOP-92 NSCLC
NCI-H226 lung = tested on: NCI-H226 lung
NCI-H23 lung = tested on: NCI-H23 lung
NCI-H460 lung = tested on: NCI-H460 lung
OVCAR-5 ovarian = tested on: OVCAR-5 ovarian
RPMI-8226 leukemia = tested on: RPMI-8226 leukemia
SNB-75 CNS = tested on: SNB-75 CNS

| Compound | TGI (A498 renal) | TGI (ACHN renal) | TGI (HCT-116 colon) | TGI (HOP-92 NSCLC) | TGI (NCI-H226 lung) | TGI (NCI-H23 lung) | TGI (NCI-H460 lung) | TGI (OVCAR-5 ovarian) | TGI (RPMI-8226 leukemia) | TGI (SNB-75 CNS) | GI50 (A498 renal) | GI50 (ACHN renal) | GI50 (HCT-116 colon) | GI50 (HOP-92 NSCLC) | GI50 (NCI-H226 lung) | GI50 (NCI-H23 lung) | GI50 (NCI-H460 lung) | GI50 (OVCAR-5 ovarian) | GI50 (RPMI-8226 leukemia) | GI50 (SNB-75 CNS) |
| --- | --- | --- | --- | --- | --- | --- | --- | --- | --- | --- | --- | --- | --- | --- | --- | --- | --- | --- | --- | --- |
| N#C/C(=C(\O)C(=O)O)c1ccc(-c2cccc3ccccc23)cc1 | > 100 µM | > 100 µM | > 100 µM | > 100 µM | > 100 µM | > 100 µM | > 100 µM | > 100 µM | > 100 µM | > 100 µM |  |  |  |  |  |  |  |  |  |  |
| O=C(O)c1[nH]c(C(=O)O)c(CC(F)(F)C(F)(F)C(F)(F)F)c1CC(F)(F)C(F)(F)C(F)(F)F | > 100 µM | > 100 µM | > 100 µM | > 100 µM | > 100 µM | > 100 µM | > 100 µM | > 100 µM | > 100 µM | > 100 µM |  |  |  |  |  |  |  |  |  |  |
| CC1(C)OC2C(=O)OC(COCc3ccccc3)C2O1 (stereo not drawn) | > 100 µM | > 100 µM | > 100 µM | > 100 µM | > 100 µM | > 100 µM | > 100 µM | > 100 µM | > 100 µM | > 100 µM |  |  |  |  |  |  |  |  |  |  |
| O=S(=O)(O)c1ccc2cc(N=Nc3cc(S(=O)(=O)O)c4cccnc4c3O)ccc2c1 | > 100 µM | > 100 µM | > 100 µM | > 100 µM | > 100 µM | > 100 µM | > 100 µM | > 100 µM | > 100 µM | > 100 µM |  |  |  |  |  |  |  |  |  |  |
| CCN(CC)CC(C)Nc1ccc(C)c2sc3ccccc3c(=O)c12 (stereo not drawn) | 8.07 µM | 15.1 µM | 12.3 µM | 8.36 µM | 18.8 µM | 19.8 µM | 8.25 µM | 12.4 µM | 6.81 µM | 10.8 µM | 1.92 µM | 3.88 µM | 3.07 µM | 0.896 µM | 4.21 µM | 5.94 µM | 2.05 µM | 2.95 µM | 2.32 µM | 2.2 µM |
| O=Nc1c2cccnc2n2nnc3ccc(Cl)cc3c12 | 10.3 µM | 2.02 µM | 6.11 µM | 1.75 µM | 21 µM | 10.2 µM | 7.8 µM | 14.5 µM | 1.7 µM | 11.4 µM | 3.34 µM | 0.371 µM | 0.316 µM | 0.0999 µM | 4.96 µM | 2.09 µM | 2.11 µM | 3.6 µM | 0.258 µM | 3.19 µM |
| OCCCNCc1ccccn1 | > 100 µM | > 100 µM | > 100 µM | > 100 µM | > 100 µM | > 100 µM | > 100 µM | > 100 µM | > 100 µM | > 100 µM |  |  |  |  |  |  |  |  |  |  |
| CCCN(CCCCC(NC(C)=O)C(=O)NCc1ccccc1)C(=O)NC (stereo not drawn) | > 100 µM | > 100 µM | > 100 µM | > 100 µM | > 100 µM | > 100 µM | > 100 µM | > 100 µM | > 100 µM | > 100 µM |  |  |  |  |  |  |  |  |  |  |
| c1cc(-c2sc(-c3ccncc3)c(-c3ccncc3)c2-c2ccncc2)ccn1 | 26.7 µM | 42.9 µM | 28.5 µM | 29.6 µM | 30.4 µM | 31.9 µM | 23.8 µM | 47.2 µM | > 100 µM | 40.9 µM |  |  |  |  |  |  |  |  |  |  |
| CCCCS(=N)(=O)CC[C@H](N)C(=O)O (stereo partly drawn) | 5000 µM and > 10000 µM | > 10000 µM | > 10000 µM |  | > 10000 µM | 5000 µM and > 10000 µM | 5000 µM and > 10000 µM | > 10000 µM | 4730 µM and > 10000 µM | 5000 µM and > 10000 µM | > 10000 µM | > 10000 µM | > 9060 µM | 945 µM | > 10000 µM | > 10000 µM | > 3940 µM | > 10000 µM | > 8560 µM | > 10000 µM |
| CCOC(=O)/C(C1=CC(=O)C(=O)c2ccccc21)=C(/C)NCc1ccccc1 | 10.4 µM | 4.75 µM | 2.85 µM | 3.52 µM | 6.38 µM | 3.71 µM | 12 µM | 6.69 µM | 0.432 µM | 55.5 µM | 4.77 µM | 2.28 µM | 1.52 µM | 1.4 µM | 2.62 µM | 1.85 µM | 3.23 µM | 2.43 µM | 0.184 µM | 3.11 µM |
| CCc1cccc(C)c1NC(=O)CC1Sc2ccccc2NC1=O (stereo not drawn) | 72.8 µM | > 100 µM | > 100 µM | 99.7 µM | 64.6 µM | > 100 µM | > 100 µM | > 100 µM | > 100 µM | 75 µM |  |  |  |  |  |  |  |  |  |  |
| c1ccc(COc2ccc3[nH]c4c(ncc5[nH]c6ccccc6c54)c3c2)cc1 | 41.6 µM | 31.6 µM | 27 µM | 29.9 µM | 30.9 µM | 35.3 µM | 37 µM | 33.6 µM | 8.01 µM | 25.5 µM |  |  |  |  |  |  |  |  |  |  |
| O=[N+]([O-])/C=C\c1ccc2c(c1)OCO2 | 8.14 µM | 16.2 µM | 2.95 µM | 30.9 µM | 53 µM | 7.38 µM | 27.5 µM | 26.4 µM | 5.07 µM | 22.2 µM | 1.37 µM | 4.21 µM | 1.42 µM | 12.5 µM | 13.8 µM | 2.52 µM | 10.6 µM | 11.5 µM | 1.77 µM | 10.3 µM |
| OC1CCC(C2C3CCCCC3C3CCCCC3C2C2CCC(O)CC2)CC1 (stereo not drawn) | 32.2 µM | 7.48 µM | > 100 µM | 98.9 µM | > 100 µM | > 100 µM | 10.2 µM | > 100 µM | 59.1 µM | 21.6 µM |  |  |  |  |  |  |  |  |  |  |
| Cc1ccc2c(c1)sc(-c1ccc(N(C)C)cc1)[n+]2C | 8.16 µM | > 100 µM | > 34.6 µM | 5.36 µM | > 100 µM | > 48.8 µM | 8.25 µM | > 100 µM | 5.15 µM | 34.8 µM | 0.785 µM | 5.89 µM | 0.502 µM | 0.719 µM | 3.26 µM | 0.987 µM | 1.18 µM |  | 0.13 µM | 4.55 µM |
| c1cc2c(cnc3cscc32)s1 | > 100 µM | > 100 µM | > 100 µM | > 100 µM | > 100 µM | > 100 µM | > 100 µM | > 100 µM | > 100 µM | > 100 µM |  |  |  |  |  |  |  |  |  |  |
| COC1C(=O)CCC2(CO2)C1(O)C1(C)OC1CCC(C)C (stereo not drawn) | > 100 µM | > 100 µM | > 100 µM | > 100 µM | > 100 µM | > 100 µM | > 100 µM | > 100 µM | > 100 µM | > 100 µM |  |  |  |  |  |  |  |  |  |  |
